Values of other authors in patent US10952981B2, “Liquid pharmaceutical compositions of baclofen for oral administration” (SLAYBACK PHARMA LLC, priority 2019, dated 2021).

## NCC(CC(=O)O)c1ccc(Cl)cc1 (stereo not drawn) [Baclofen, 4-amino-3-(4-chlorophenyl)-butanoic acid]
Aqueous 0.1N HCl or 0.1N NaOH, Ahuja (1985)
  Concentration of baclofen obtainable: greater than 20 mg/mL
As referred to for Allen et al., 1996, Johnson and Hart, 1993
  Equilibrium concentration: 4.3 mg/mL
At a concentration of 2 mg/mL, near neutral pH
  Solubility at near neutral pH: not soluble
chloroform
  Solubility in chloroform: insoluble
methanol
  Solubility in methanol: very slightly soluble
water
  Solubility in water: slightly soluble
